According to ChEMBL document CHEMBL1201862, “PubChem BioAssay data set” (2004):
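How tested: cells in 96-well plates exposed to compound for 48 hours at five concentrations. Here, GI50 denotes the concentration required for 50% inhibition of growth.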 Calls of active or inactive are those of the source. Rule as the data show it: active = GI50 up to about 1.1 µM and inactive = higher.

Legend:
Test in all cases: NCI anticancer screen, dose series, 48 h
[1] = tested on: HOP-92
[2] = tested on: K562
[3] = tested on: HCT-116
[4] = tested on: SF-295
[5] = tested on: NCI/ADR-RES
[6] = tested on: 786-0
[7] = tested on: M14
[8] = tested on: SF-268
[9] = tested on: OVCAR-3
[10] = tested on: U-251
[11] = tested on: OVCAR-5
[12] = tested on: SNB-19
[13] = tested on: T47D
[14] = tested on: SK-OV-3
[15] = tested on: RXF 393
[16] = tested on: HOP-62
[17] = tested on: SNB-78
[18] = tested on: DMS-273
[19] = tested on: XF498

Measured: GI50

OC(COc1ccccc1)CN1CCCCC1 (centres undefined)
inactive: [1] > 100 µM | [2] > 100 µM | [3] > 100 µM | [4] > 100 µM | [5] > 100 µM | [6] > 100 µM | [7] > 100 µM | [8] > 100 µM | [9] > 100 µM | [10] > 100 µM | [11] > 100 µM | [12] > 100 µM | [13] > 100 µM | [14] > 100 µM | [15] > 100 µM | [16] > 100 µM

Cc1c2c(c(C)n1-c1ccccc1)C(=O)N(CCN1CCN(c3cccc(C(F)(F)F)c3)CC1)C2=O
inactive: [1] > 100 µM | [2] 5.92 µM | [3] 8.36 µM | [4] 50.1 µM | [5] 59.4 µM | [6] 71.8 µM | [7] > 100 µM | [8] > 100 µM | [9] > 100 µM | [10] 31.3 µM | [11] > 100 µM | [12] > 100 µM | [13] 4.29 µM | [14] > 100 µM | [15] > 100 µM | [16] > 100 µM

CCc1ccccc1NC(=O)C1=C(C)NC(C)=C(C(=O)Nc2ccccc2CC)C1c1cccc([N+](=O)[O-])c1
inactive: [1] 13.2 µM | [2] 29.4 µM | [4] 47.4 µM | [6] 43 µM | [7] 29 µM | [17] 43.5 µM | [8] 43 µM | [9] 52 µM | [10] 39.4 µM | [11] 41.5 µM | [12] 59.4 µM | [14] > 100 µM | [15] 10.5 µM | [16] 38.3 µM

C=C(c1ccccc1)c1cc2c(=O)[nH]ccc2n1C
inactive: [1] 14.2 µM | [2] 13.8 µM | [4] 29.9 µM | [18] 27.5 µM | [19] 30.5 µM | [6] 27.5 µM | [7] 29.2 µM | [17] 48.5 µM | [8] 33.3 µM | [9] 24.8 µM | [11] 44.2 µM | [12] 48 µM | [14] 26 µM | [15] 19.3 µM | [16] 25 µM

C1=CC(=P(c2ccccc2)(c2ccccc2)c2ccccc2)C=C1
inactive: [1] 6.14 µM | [2] 3.45 µM | [4] 15.1 µM | [18] 9.91 µM | [19] 2.91 µM | [6] 10.4 µM | [7] 8.22 µM | [17] 7.5 µM | [8] 10.3 µM | [9] 10.7 µM | [11] 14.7 µM | [12] 4.67 µM | [14] 18.2 µM | [15] 13.7 µM | [16] 18.4 µM

COc1ccc(-c2nnc(-c3ccncc3)o2)cc1
inactive: [1] > 100 µM | [2] > 100 µM | [3] > 100 µM | [4] > 100 µM | [5] > 100 µM | [6] > 100 µM | [7] > 100 µM | [8] > 100 µM | [9] > 100 µM | [10] > 100 µM | [11] > 100 µM | [12] 78.7 µM | [13] > 100 µM | [14] > 100 µM | [15] > 100 µM | [16] > 100 µM

COc1ccc(-c2oc(/C=N/c3ccccc3)c([N+](=O)[O-])c2-c2ccc(OC)c(OC)c2)cc1OC
inactive: [1] 65.6 µM | [2] > 100 µM | [3] > 100 µM | [4] > 100 µM | [18] > 100 µM | [19] > 100 µM | [6] > 100 µM | [7] > 100 µM | [17] > 100 µM | [8] > 100 µM | [9] > 100 µM | [10] > 100 µM | [11] > 100 µM | [12] > 100 µM | [14] > 100 µM | [15] > 100 µM | [16] > 100 µM

CC(C)(/N=N/C(C)(C)C(=N)N)C(=N)N
inactive: [1] > 100 µM | [2] > 100 µM | [3] > 100 µM | [4] > 100 µM | [5] > 100 µM | [6] > 100 µM | [7] > 100 µM | [8] > 100 µM | [9] > 100 µM | [10] > 100 µM | [11] > 100 µM | [12] > 100 µM | [13] > 100 µM | [14] > 100 µM | [15] > 100 µM | [16] > 100 µM

CCN(/N=C1\CC2C=CCN(C2)C(=O)Cc2c1[nH]c1ccccc21)S(=O)(=O)c1ccc(C)cc1 (centres undefined)
inactive: [2] 71.6 µM | [3] 85.9 µM | [4] 71.1 µM | [18] 62.4 µM | [19] > 100 µM | [6] > 100 µM | [10] > 100 µM | [12] 81.8 µM

COc1ccc(-c2cc(=O)c3c(O)cccc3o2)c(OC)c1OC
inactive: [1] 19.9 µM | [2] 6.59 µM | [3] 38.7 µM | [4] 43.2 µM | [18] 13.7 µM | [19] 65.6 µM | [6] > 100 µM | [7] > 100 µM | [17] 51.4 µM | [8] > 100 µM | [9] > 100 µM | [10] 16.1 µM | [11] 6.67 µM | [14] > 100 µM | [15] 20.2 µM | [16] 10.3 µM
